Assay results reported in US20240300975A1, “DIMETHYL-SUBSTITUTED THIAZOLOLACTAM COMPOUND AND USE THEREOF” (D3 Bio (Wuxi) Co., Ltd., priority 2021, published 2024).

What was measured:
canine plasma albumin = assay: Plasma protein binding (PPB), canine plasma; assay type: in vitro ADME; conditions: ultracentrifugation, 37° C., 4 h
Experimental: (§1) The binding degree of the assay compound to human/mouse/rat/canine/monkey plasma albumin was studied.
(§2) • 1) Matrix preparation: on the day of the assay, plasma was thawed in cold water and centrifuged at 3220 rpm for 5 min to remove all clots. The pH of the resulting plasma was measured and adjusted to 7.4±0.1 using 1% phosphoric acid or 1N sodium hydroxide as needed. • 2) Dilution procedure for the assay compound: the assay compound was dissolved in dimethyl sulfoxide (DMSO) to prepare stock solutions with concentrations of 10 mM and 2 mM, respectively. A 40 μM working solution was prepared by diluting 2 μL of stock solution (2 mM) with 98 μL of DMSO. A 400 μM working solution of the control compound was prepared by diluting 10 μL of stock solution with 240 μL of DMSO. The working solution of the compound (5 μL) was mixed well with a blank matrix (995 μL) at a ratio of 1:200 to prepare a loading matrix.
(§3) • a) An equal volume of 30 μL of loading matrix (n=2) was transferred to a sample collection plate to prepare a time 0 (TO) sample for residue determination. The sample was immediately matched with the corresponding blank buffer to a final volume of 60 μL, and the volume ratio of plasma to buffer in each well was 1:1. […] The mixture was centrifuged at 4000 rpm for 20 min and 100 μL of supernatant from each sample was analyzed by LC-MS/MS.

HT29 tumor cells = assay: In vitro cell proliferation inhibition (CellTiterGlo); assay type: cell-based; conditions: Homo sapiens, HT-29
Experimental: The ability of compounds to inhibit the proliferation of HT29 tumor cells was measured.
The assay compound was dissolved in 100% DMSO to prepare 10 mM stock solution.
• a) UV light of a biological safety cabin was turned on, and 30 minutes were counted down; • b) In a 37° C. water bath, RPMI1640 medium and trypsin were preheated; • c) After completion of the UV irradiation, the biological safety cabin was opened. The preheated medium, trypsin and phosphate buffered saline (PBS), etc. were wiped with alcohol and placed in the biological safety cabin; • d) HT29 cells were removed from the incubator, and the old medium was removed in biological safety cabin. 10 ml of PBS was added. […] The culture vessel was shaken horizontally so that the trypsin evenly covered the cells at the bottom, and placed in an incubator for 2 minutes; • f) Cell digestion was stopped with complete medium, and the cell suspension was pipetted to homogeneity and counted; • g) According to the result of cell counting, the density of cell suspension was adjusted to 1500 cells per well, and the cell suspension was seeded at 50 μl per well; • h) The stock solution of compounds was serially diluted in DMSO solution, and compounds were added to cell plate using Tecan; • i) The compound-added cell plate and CellTiterGlo were equilibrated at room temperature, and 25 microliters of CellTiterGlo was then added to each well. […]

[1] = In vivo PK study in SD rats; conditions: male SD rats
Experimental: Male SD rats were used as assay animals. After a single administration, the plasma concentration of the compound was measured and the pharmacokinetic behavior was evaluated.
Six healthy adult male SD rats were selected, wherein 3 rats were in an intravenous injection group and 3 rats were in an oral group. The vehicle in the intravenous injection group was 5% DMSO+95% (20% HP-β-CD). The compound to be assayed was mixed with an appropriate amount of vehicle for intravenous injection, vortexed and sonicated to prepare a clear solution of 0.2 mg/mL. The clear solution was filtered by a microporous membrane, and then ready for use. The vehicle in the oral group was 5% DMSO+95% (20% HP-β-CD). The compound to be assayed was mixed with the vehicle, vortexed and sonicated to prepare a solution of 1 mg/mL. SD rats were administered 1 mg/kg intravenously or 10 mg/kg orally, and then whole blood was collected for a certain period. Plasma was prepared. The drug concentration was analyzed by LC-MS/MS method, and the pharmacokinetic parameters were calculated by Phoenix WinNonlin software (Pharsight, USA).

In vivo PK study in mice = conditions: female BALB/c mice
Description: Female BALB/c mice were used as assay animals to determine the blood concentration of the compound and evaluate the pharmacokinetic behavior after a single administration.
Four healthy adult female BALB/c mice were selected, wherein 2 mice were in an intravenous injection group and 2 mice were in an oral group. The vehicle in the intravenous injection group was 5% DMSO+95% (20% HP-β-CD). The compound to be assayed was mixed with an appropriate amount of vehicle for intravenous injection, vortexed and sonicated to prepare a clear solution of 0.5 mg/mL. The clear solution was filtered by a microporous membrane, and then ready for use. The vehicle in the oral group was 5% DMSO+95% (20% HP-β-CD). The compound to be assayed was mixed with the vehicle, vortexed and sonicated to prepare a solution of 0.3 mg/mL. Mice were administered 1 mg/kg intravenously or 3 mg/kg orally, and then whole blood was collected for a certain period. Plasma was prepared. The drug concentration was analyzed by LC-MS/MS method, and the pharmacokinetic parameters were calculated by Phoenix WinNonlin software (Pharsight, USA).

rat plasma albumin = assay: Plasma protein binding (PPB), rat plasma; assay type: in vitro ADME; conditions: ultracentrifugation, 37° C., 4 h
Experimental: as §1, §2, §3

With `Cc1cccc(CN2C(=O)c3nc(-c4nc(Nc5ccnn5C)ncc4C)sc3C2(C)C)n1` [WX001] the “Plasma protein binding rate (unbound %)” value (canine plasma albumin) was 4.1%, the IC50 (HT29 tumor cells) was 21 nM and the “Oral DNAUC (AUCPO/Dose)” value ([1]; 10 mg/kg orally) was 302.12 nM · h/mpk. For the same molecule, the clearance ([1]; rat, plasma, iv, 1 mg/kg intravenously) was 24.8 mL/min/kg, the Vd ([1]; rat, plasma, iv, 1 mg/kg intravenously, read-out: Vdss) was 1.06 L/kg and the bioavailability ([1]; rat, plasma, oral, 1 mg/kg intravenously / 10 mg/kg orally, read-out: F % (oral bioavailability)) was 21%. The half-life ([1]; rat, plasma, single administration) was 2.6 h, the Cmax ([1]; rat, po, 10 mg/kg orally, plasma) was 1010 nM and the “Oral DNAUC (AUCPO/Dose)” value (In vivo PK study in mice; 3 mg/kg orally) was 787.18 nM · h/mpk. For the same molecule, the clearance (In vivo PK study in mice; mouse, plasma, iv, 1 mg/kg intravenously) was 27.5 mL/min/kg, the Vd (In vivo PK study in mice; mouse, plasma, iv, 1 mg/kg intravenously, read-out: Vdss) was 1.6 L/kg and the bioavailability (In vivo PK study in mice; mouse, plasma, oral, 1 mg/kg intravenously / 3 mg/kg orally, read-out: F % (oral bioavailability)) was 62%. The half-life (In vivo PK study in mice; mouse, plasma, single administration) was 1.29 h, the Cmax (In vivo PK study in mice; mouse, po, 3 mg/kg orally, plasma) was 2120 nM and the “Plasma protein binding rate (unbound %)” value (rat plasma albumin) was 3.8%.
